Data as given in US20210113522A1, “COUMARIN DERIVATIVE AS ANTI-ASTHMATIC AGENT, PHARMACEUTICAL COMPOSITION THEREOF, ITS PREPARATION AND USE” (I-NOVA MEDICINSKA ISTRAZIVANJA D.O.O., priority 2017, published 2021).

Test system: croton oil-induced ear edema
Experiment: Croton oil-induced ear edema in mice
Format: in vivo, Balb/c mice
Details: dexamethasone 1 mg/kg, 1 2 mg/kg
Text: The presents study aims to detect the inflammatory/anti-inflammatory potential effects of compound 1 in a model of acute skin inflammation induced by local application of phlogistic agent croton oil in Balb/c mice. The technique for croton oil-induced ear edema in mice, originally described by Tubaro et al., was followed, with modifications; see literature references 16 and 17: • 16) A. Tubaro, P. Dri, G. Delbello, C. Zilli, R. Della Loggia: The croton oil ear test revisited, Agents Actions 17 (1986) 347-349. • 17) G. Coruzzi, C. Pozzoli, M. Adami, D. Grandi, N. Guido, R. Smits, I. de Esch and R. Leurs: Strain-dependent effects of the histamine H4 receptor antagonist JNJ7777120 in a murine model of acute skin inflammation, Experimental Dermatology 21 (2011) 32-37.
Mice (total 40) were separated into 4 groups (n=10). Each group was treated under different regimen:
Cutaneous inflammation was induced in conscious mice by topical application of croton oil (5% in acetone).
Six hours after croton oil application, mice were euthanized by light ether anaesthesia, followed by cervical dislocation; both left (acetone) and right (croton oil in acetone) ears were removed, by cutting horizontally across the indentation at the base of the ear. For each mouse, the extent of the oedema was expressed as the difference in weight (Δ [mg]) between right (inflamed) and left (uninflamed) ear. The percentage increase in the oedema of the treated ear was calculated by the following formula: […]
The presents study aims to detect the inflammatory/anti-inflammatory potential effects of compound 1 in a model of acute skin inflammation induced by local application of phlogistic agent croton oil in Balb/c mice. The technique for croton oil-induced ear edema in mice, originally described by Tubaro et al., was followed, with modifications; see literature references 16 and 17.
In preliminary experiments, the effect of subcutaneous (s.c.) administration of saline, 100% DMSO or 20% 2-hydroxypropyl-β-cyclodextrin was investigated to check the vehicle effects on ear inflammation.
The statistical significance between the groups was assessed by one-way analysis of variance (ANOVA) followed by a post hoc Tukey test. The accepted level of significance for the test was P<0.05. All tests were carried out using GraphPad Software (San Diego, Calif., USA).

Q: Which results are given for `C[C@@H]1C[C@H]2[C@@H]3CCC4=CC(=O)C=C[C@]4(C)[C@@]3(F)[C@@H](O)C[C@]2(C)[C@@]1(O)C(=O)CO` [dexamethasone, reference compound]?
A: Percentage of increasing the ear edema (6 h after croton oil): 44.2%; Maximal inhibition of croton oil-induced ear oedema (Balb/c mice, 6 h): approximately 60%; Left ear m (left ear: 80% 2HPβCD + 20% DMSO (uninflamed), 6 h): 0.0360 g; Right ear m (right ear: substance + croton oil after 30 min, 6 h): 0.0519 g
